Results taken from PMC7539012, “Hyperphosphorylated tau aggregation and cytotoxicity modulators screen identified prescription drugs linked to Alzheimer's disease and cognitive functions” (Scientific Reports, 2020).
Counter-ions that a name gives are not always drawn.

These compounds were tested on T1, 1N4R p-tau (assay: p-tau aggregation modulator screen of 1280-compound library (ThS fluorescence net change over 16 h)). Details: not given.
T1 construct: made in house; host or cells: E. coli (PIMAX system)
Assay type: biochemical

How did the ThS net change turn out when `CC(C)c1cccc(C(C)C)c1O` [Propofol] was run?
The ThS net change was 400.

For `CCCCN(CCCC)CCC(O)c1cc2c(Cl)cc(Cl)cc2c2cc(C(F)(F)F)ccc12` (centres unmarked) [Halofantrine hydrochloride], which ThS net change is on record?
The ThS net change was 555.

For `CC(=O)NC1CCSC1=O` (racemic) [N-Acetyl-DL-homocysteine Thiolactone], which ThS net change is on record?
Its ThS net change is 421.

Which ThS net change does the source give for `O=P1(N(CCCl)CCCl)NCCCO1` (centres unmarked) [Cyclophosphamide] here?
The ThS net change was 440.

Which ThS net change does the source give for `Clc1ccc2c(c1)CCc1cccnc1C2=C1CCNCC1` [Desloratadine] here?
Its ThS net change is 457.

With `COc1ccc([C@@H]2Sc3ccccc3N(CCN(C)C)C(=O)[C@@H]2OC(C)=O)cc1` [Diltiazem hydrochloride] as the compound, how does the ThS net change read?
Its ThS net change is 308.

Same assay, conditions: 30 µM compound, 6 µM p-tau, 16 h

`CC/C(=C(/CC)c1ccc(O)cc1)c1ccc(O)cc1` [diethylstilbestrol, reference compound] was tested. Which “effect on p-tau aggregation in pilot screen” value did it give?
Its value is “none of them affected p-tau aggregation”.

Same assay, conditions: 1280-compound library screen; ThS fluorescence net change over 16 h

How did the ThS net change turn out when `C[C@H]1NC(=O)NC1=O` [Methylhydantoin-5-(D)] was run?
The ThS net change was 384.

`NS(=O)(=O)c1cc2c(cc1Cl)N=C(CSCc1ccccc1)NS2(=O)=O` [Benzthiazide] was tested. Which ThS net change did it give?
The ThS net change was 399.

With `NC(=O)NC1NC(=O)NC1=O` (centres unmarked) [Allantoin] as the compound, how does the ThS net change read?
Its ThS net change is 390.

For `C=C1C[C@H]2[C@@H]3C=C(C)C4=CC(=O)CC[C@]4(C)[C@H]3CC[C@]2(C)[C@@]1(OC(C)=O)C(C)=O` [Melengestrol acetate], which ThS net change is on record?
Its ThS net change is 404.

With `C#C[C@]1(O)CC[C@H]2[C@@H]3CCc4cc(OC)ccc4[C@H]3CC[C@@]21C` [Ethynylestradiol 3-methyl ether] as the compound, how does the ThS net change read?
The ThS net change was 406.

Which ThS net change does the source give for `Cc1nnc(SCC2=C(C(=O)O)N3C(=O)[C@@H](NC(=O)Cn4cnnn4)[C@H]3SC2)s1` [Cefazolin sodium salt] here?
Its ThS net change is 381.

How did the ThS net change turn out when `CCCCC[C@H](O)/C=C/[C@@H]1[C@@H](C/C=C\CCCC(=O)O)[C@@H](O)C[C@H]1O` [Dinoprost trometamol] was run?
The ThS net change was 384.

How did the ThS net change turn out when `Cc1ccc(S(=O)(=O)NC(=O)NN2CC3CCCC3C2)cc1` (centres unmarked) [Gliclazide] was run?
The ThS net change was 379.

For `Nc1ncn(C2O[C@H](CO)[C@@H](O)[C@H]2O)c(=O)n1` (some centres unmarked) [Azacytidine-5], which ThS net change is on record?
Its ThS net change is 405.

How did the ThS net change turn out when `CS(=O)(=O)c1ccc(C2=C(c3ccccc3)C(=O)OC2)cc1` [Rofecoxib] was run?
The ThS net change was 396.

Which ThS net change does the source give for `CC/C(=C(/CC)c1ccc(O)cc1)c1ccc(O)cc1` [diethylstilbestrol, reference compound] here?
Its ThS net change is 406.

With `CC(C)(C)NCC(O)COc1cccc2c1CC(O)C(O)C2` (centres unmarked) [Nadolol] as the compound, how does the ThS net change read?
Its ThS net change is 411.

`C=C(CC)C(=O)c1ccc(OCC(=O)O)c(Cl)c1Cl` [Ethacrynic acid] was tested. Which ThS net change did it give?
Its ThS net change is 412.

`CC(=O)Nc1c(I)c(C(=O)N[C@H]2C(O)O[C@H](CO)[C@@H](O)[C@@H]2O)c(I)c(N(C)C(C)=O)c1I` (some centres unmarked) [Metrizamide] was tested. Which ThS net change did it give?
The ThS net change was 400.

How did the ThS net change turn out when `CC1(C)O[C@@H]2C[C@H]3[C@@H]4C[C@H](F)C5=CC(=O)C=C[C@]5(C)[C@H]4[C@@H](O)C[C@]3(C)[C@]2(C(=O)CO)O1` [Flunisolide] was run?
The ThS net change was 378.

How did the ThS net change turn out when `CC(O)(CS(=O)(=O)c1ccc(F)cc1)C(=O)Nc1ccc(C#N)c(C(F)(F)F)c1` (centres unmarked) [Bicalutamide] was run?
Its ThS net change is 388.

Same assay, conditions: 1280-compound library screen; […]

How did the ThS net change turn out when `C#C[C@]1(O)CC[C@H]2[C@@H]3[C@H](C)CC4=C(CCC(=O)C4)[C@H]3CC[C@@]21C` [Tibolone] was run?
The ThS net change was 381.

For `C[n+]1ccccc1/C=N/O` [Pralidoxime chloride], which ThS net change is on record?
The ThS net change was 397.

For `COc1ccc(C(CN(C)C)C2(O)CCCCC2)cc1` (centres unmarked) [Venlafaxine], which ThS net change is on record?
The ThS net change was 404.

With `CN1C(=O)CCS(=O)(=O)C1c1ccc(Cl)cc1` (centres unmarked) [Chlormezanone] as the compound, how does the ThS net change read?
Its ThS net change is 389.

For `CC(=O)Nc1c(I)c(NC(C)=O)c(I)c(C(=O)O)c1I.O.O` [Diatrizoic acid dihydrate], which ThS net change is on record?
Its ThS net change is 407.

Which ThS net change does the source give for `CN[C@@H]1[C@@H](O)[C@@H](O[C@@H]2[C@@H](O)[C@H](O[C@H]3OC(CN)=CC[C@H]3N)[C@@H](N)C[C@H]2N)OC[C@]1(C)O` [Sisomicin sulfate] here?
Its ThS net change is 381.

Same assay, conditions: library screen, ThS fluorescence net change over 16 h with p-tau

How did the ThS net change turn out when `O=C(CCCN1CCC(O)(c2ccc(Cl)cc2)CC1)c1ccc(F)cc1` [Haloperidol] was run?
Its ThS net change is 319.

For `CC(C)(C)c1ccc(C(O)CCCN2CCC(C(O)(c3ccccc3)c3ccccc3)CC2)cc1` (centres unmarked) [Terfenadine], which ThS net change is on record?
Its ThS net change is 251.

Same assay, conditions: p-tau aggregation modulator screen of 1280-compound library; ThS fluorescence net change

How did the ThS net change turn out when `CCN1CCN(c2cc3c(cc2F)c(=O)c(C(=O)O)cn3C2CC2)CC1` [Enrofloxacin] was run?
Its ThS net change is 364.

For `CN(C)CCN(Cc1cccs1)c1ccccn1` [Methapyrilene hydrochloride], which ThS net change is on record?
The ThS net change was 370.

`Cc1nnc(NS(=O)(=O)c2ccc(N)cc2)s1` [Sulfamethizole] was tested. Which ThS net change did it give?
The ThS net change was 365.

With `CC(=O)N(CC(O)CO)c1c(I)c(C(=O)NCC(O)CO)c(I)c(C(=O)NCC(O)CO)c1I` (centres unmarked) [Iohexol] as the compound, how does the ThS net change read?
The ThS net change was 345.

`CN1C(=O)OC(C)(C)C1=O` [Trimethadione] was tested. Which ThS net change did it give?
The ThS net change was 346.

With `C#C[C@]1(O)CC[C@H]2[C@@H]3CCC4=C(CCC(=O)C4)[C@H]3CC[C@@]21C` [Norethynodrel] as the compound, how does the ThS net change read?
The ThS net change was 341.

`OCCN1C[C@H](O)[C@@H](O)[C@H](O)[C@H]1CO` [Miglitol] was tested. Which ThS net change did it give?
Its ThS net change is 372.

For `C[N+]1(C)CCC(=C(c2ccccc2)c2ccccc2)CC1` [Diphemanil methylsulfate], which ThS net change is on record?
Its ThS net change is 350.

`C/C(=C(\CCOP(=O)(O)O)SC(=O)c1ccccc1)N(C=O)Cc1cnc(C)nc1N` [Benfotiamine] was tested. Which ThS net change did it give?
Its ThS net change is 375.

With `Cc1cccc(C)c1NC(=O)CN1CCN(CCCC(c2ccc(F)cc2)c2ccc(F)cc2)CC1` [Lidoflazine] as the compound, how does the ThS net change read?
The ThS net change was 341.

`COC(=O)Nc1nc2cc(SC(C)C)ccc2[nH]1` [Methiazole] was tested. Which ThS net change did it give?
The ThS net change was 365.

Same assay, conditions: p-tau aggregation modulator screen of the compound library, ThS fluorescence net change

How did the ThS net change turn out when `CC1(C)O[C@@H]2C[C@H]3[C@@H]4C[C@H](F)C5=CC(=O)C=C[C@]5(C)[C@@]4(F)[C@@H](O)C[C@]3(C)[C@]2(C(=O)CO)O1` [Fluocinolone acetonide] was run?
Its ThS net change is 460.

Which ThS net change does the source give for `CC1(C)S[C@@H]2[C@H](NC(=O)Cc3ccccc3)C(=O)N2[C@H]1C(=O)O.CC1(C)S[C@@H]2[C@H](NC(=O)Cc3ccccc3)C(=O)N2[C@H]1C(=O)O.c1ccc(CNCCNCc2ccccc2)cc1` [Benzathine benzylpenicillin] here?
The ThS net change was 455.

`Cn1c(=O)c2c(ncn2CCO)n(C)c1=O` [Etofylline] was tested. Which ThS net change did it give?
The ThS net change was 422.

Which ThS net change does the source give for `CC(C(=O)O)c1ccc2c(c1)[nH]c1ccc(Cl)cc12` (centres unmarked) [Carprofen] here?
Its ThS net change is 478.

`CC(=O)OCC1=C(C(=O)O)N2C(=O)[C@@H](NC(=O)Cc3cccs3)[C@H]2SC1` [Cephalothin sodium salt] was tested. Which ThS net change did it give?
Its ThS net change is 446.

With `CC(=O)O[C@@]12CO[C@@H]1C[C@H](O)[C@@]1(C)C(=O)[C@H](O)C3=C(C)[C@@H](OC(=O)[C@H](O)[C@@H](NC(=O)OC(C)(C)C)c4ccccc4)C[C@@](O)([C@@H](OC(=O)c4ccccc4)[C@H]21)C3(C)C` [Docetaxel] as the compound, how does the ThS net change read?
Its ThS net change is 542.

With `Cc1[nH]cnc1CN1CCc2c(c3ccccc3n2C)C1=O` [Alosetron hydrochloride] as the compound, how does the ThS net change read?
Its ThS net change is 429.

Which ThS net change does the source give for `CCCCC1=NC2(CCCC2)C(=O)N1Cc1ccc(-c2ccccc2-c2nnn[nH]2)cc1` [Irbesartan] here?
The ThS net change was 454.

For `CC1NC(=O)NC1=O` (centres unmarked) [Methylhydantoin-5-(L)], which ThS net change is on record?
Its ThS net change is 449.

With `O=C(O)CN(CCN(CC(=O)O)CC(=O)O)CCN(CC(=O)O)CC(=O)O` [Pentetic acid] as the compound, how does the ThS net change read?
The ThS net change was 480.

How did the ThS net change turn out when `NC1CCN(c2c(F)cc3c(=O)c(C(=O)O)cn(C4CC4)c3c2Cl)C1` (centres unmarked) [Clinafloxacin] was run?
Its ThS net change is 433.

For `COc1ccc(Cc2nccc3cc(OC)c(OC)cc23)cc1OC` [Papaverine hydrochloride], which ThS net change is on record?
The ThS net change was 427.

`O=S(=O)(O)c1cc(O)ccc1O` [Ethamsylate] was tested. Which ThS net change did it give?
The ThS net change was 455.

`COC(=O)Nc1nc2ccc([S+]([O-])c3ccccc3)cc2[nH]1` (centres unmarked) [Oxfendazol] was tested. Which ThS net change did it give?
The ThS net change was 433.
